Measured values taken from US20060172890A1, “Liquid formulation of a plant growth regulator” (priority 2004, published 2006).
Read-outs that look alike come from different tables or passages of the source.

Columns and labels:
[1] = system: apple trees; experiment: Phytotoxicity of sprayed aqueous solvents, field tests; type: in vivo; conditions: sprayed 1 to 2% aqueous solutions; field tests with apple trees
Protocol: (§1) The potential for phytotoxicity (plant injury) by spraying 1 to 2% aqueous solutions of ethyl lactate and solvent blends with ethyl lactate, as well as other ingredients such as glycerol and soy methyl esters was evaluated in field tests with apple trees and in greenhouse tests with corn, green bean, cucumber, tomato, ryegrass and hosta seedlings.

[2] = system: corn, green bean, cucumber, tomato, ryegrass and hosta seedlings; experiment: Phytotoxicity of sprayed aqueous solvents, greenhouse tests; type: in vivo; conditions: sprayed 1 to 2% aqueous solutions; greenhouse tests with seedlings
Protocol: as §1

[3] = Solubility of GA in solvents and solvent blends; type: physicochemical
Protocol: Gibberellic acid (GA) of 92% purity as a dry powder was used in these laboratory studies. The solvents and reagents were of reagent grade purity.
Also, the GA was easier to dissolve in the solvent blends because they were not as viscous as the single solvents. Moreover, the solvent blends had high flash points. A flash point above 140° F. is very desirable because there are less regulatory restrictions on manufacturing, transportation, and storage.

[4] = system: pea seedlings; conditions: cited from earlier work
[5] = system: dwarf morning glory; conditions: cited from earlier work

## CCOC(=O)C(C)O (centres unmarked) [ethyl lactate]
[1]
  phytotoxicity (plant injury): no evidence of phytotoxicity
[2]
  phytotoxicity (plant injury): no evidence of phytotoxicity

## C=C1C[C@]23C[C@@]1(O)CC[C@H]2[C@@]12C=C[C@H](O)[C@@](C)(C(=O)O1)[C@H]2[C@@H]3C(=O)O [GA, Gibberellic acid]
[3]; 80:20 (w/w) ethyl lactate with propylene glycol or glycerol
  solubility of GA in the solvent blends compared with ethyl lactate alone: twice as much
[3]; glycerol alone, solution very viscous and difficult to mix
  amount of GA dissolved in glycerol: a small amount
[3]; mild heating to 60° C.
  effect of mild heating on dissolution of GA in ethyl lactate: did not increase the dissolution
[3]; propylene glycol alone, solution very viscous and difficult to mix
  amount of GA dissolved in propylene glycol: a small amount
[3]; room temperature
  solubility of GA in ethyl lactate alone: approximately 2 % (w/w)

## gibberellin
[4]; ten micrograms applied at 3 days old
  effect on shoot length: nearly doubled shoot length
[4]; ten micrograms, 9 day old seedlings
  effect on shoot length: barely affected
[5]; 2 to 20 micrograms
  effect on flowering: inhibits flowering
[5]; application of 0.02 micrograms
  effect on flowering: promotes flowering
